From US20240254114A1, “PREPARATION OF FUSED AZOLE DERIVATIVES AS NOVEL DIACYLGLYCERIDE 0-ACYLTRANSFERASE 2 INHIBITORS” (Merck Sharp & Dohme LLC, priority 2022, published 2024)
Where two headings read alike, the source gives them in different places.

Target: human DGAT2 (Homo sapiens (Human), UniProt Q96PD7)
Assay: DGAT2 Enzymatic Activity Assay
Details: 13C18-triolein product by LC/MS/MS
[1] = Human DGAT2 IC50, hDGAT2 membrane prep from Sf-9 cells
[2] = read-out: Human DGAT2 IC50, hDGAT2 membrane prep from Sf-9 cells

Sequence of human DGAT2 (Q96PD7 whole entry): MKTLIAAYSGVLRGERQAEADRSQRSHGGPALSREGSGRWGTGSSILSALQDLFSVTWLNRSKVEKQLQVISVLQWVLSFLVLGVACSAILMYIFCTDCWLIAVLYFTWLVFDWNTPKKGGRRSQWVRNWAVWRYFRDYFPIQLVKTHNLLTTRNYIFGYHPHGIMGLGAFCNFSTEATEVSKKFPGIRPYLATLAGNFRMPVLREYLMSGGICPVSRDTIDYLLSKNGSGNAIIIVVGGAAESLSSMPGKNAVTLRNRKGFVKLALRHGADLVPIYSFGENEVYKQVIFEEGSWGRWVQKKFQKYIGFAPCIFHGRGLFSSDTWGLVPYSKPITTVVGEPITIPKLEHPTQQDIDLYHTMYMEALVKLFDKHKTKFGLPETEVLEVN
Description: Sf-9 insect cells were maintained in Grace's insect cell culture medium with 10% heated-inactivated fetal bovine serum, 1% Pluronic F-68 and 0.14 μg/ml Kanamycine sulfate at 27° C. in a shaker incubator. After infection with untagged baculovirus expressing human DGAT2 (hDGAT2) at multiplicity of infection (MOI) 3 for 48 hours, cells were harvested. Cell pellets were suspended in buffer containing 10 mM Tris-HCl pH 7.5, 1 mM EDTA, 250 mM sucrose and Complete Protease Inhibitor Cocktail (Sigma Aldrich), and sonicated on ice. Cell debris were removed by centrifugation at 2000×g for 15 minutes. Membrane fractions were isolated by ultracentrifugation (100,000×g), resuspended in the same buffer, and frozen (−80° C.) for later use. The protein concentration was determined with the Pierce™ BCA Protein Assay Kit (Thermo Fisher Scientific).
LC/MS/MS analyses were performed using Thermal Fisher's LX4-TSQ Vantage system. This system consists of an Agilent binary high-performance liquid chromatography (HPLC) pump and a TSQ Vantage triple quadrupole MS/MS instrument. For each sample, 2 μL samples from the top organic layer of in-plate liquid-liquid extraction were injected onto a Thermo Betabasic C4 column (2.1 mm×20 mm, 5 μm particle size). The samples were then eluted using the following conditions; mobile phase: Isopropanol: acetonitrile/10 mM ammonium formate=50/35/15 (v/v/v), flow rate: 0.8 mL/min, temperature: 25° C. Data was acquired in positive mode using a heated electrospray ionization (HESI) interface. […] The peak area was integrated by Xcalibur Quan software. The ratio between the ^13C18 triolein generated in the reaction and spiked in internal standard ^13C21-triolein was used to generate percentage inhibition and IC50 values. […] DGAT2 activity was determined by measuring the amount of enzymatic product ^13C18-triolein (^13C-1,2,3-Tri(cis-9-octadecenoyl)glycerol) using the membrane prep mentioned above. The assay was carried out in ABgene 384-well assay plates in a final volume of 25 μL at rt.

SMILES | IC50 [1] [nM] | IC50 [2] [nM]
Cn1c(C(=O)NC2(C)CCS(=O)(=O)CC2)nc2ccc(OCC(CC(F)(F)F)OC(F)F)nc21 (single isomer, unassigned) [Example 62a, 5-[2-(difluoromethoxy)-4,4,4-trifluoro-butoxy]-3-methyl-N-(4-methyl-1,1-dioxo-thian-4-yl)imidazo[4,5-b]pyridine-2-carboxamide] | 1330 | 
Cn1c(C(=O)NC2(C)CCS(=O)(=O)CC2)nc2ccc(OCC(CC(F)(F)F)OC(F)F)nc21 (single isomer, unassigned) [Example 62b, 5-[2-(difluoromethoxy)-4,4,4-trifluoro-butoxy]-3-methyl-N-(4-methyl-1,1-dioxo-thian-4-yl)imidazo[4,5-b]pyridine-2-carboxamide] | 163 | 
Cn1c(C(=O)NC2(C)CCS(=O)(=O)CC2)nc2ccc(OCC(CC(F)(F)F)OCC(F)F)nc21 (single isomer, unassigned) [Example 63a, 5-[2-(2,2-difluoroethoxy)-4,4,4-trifluoro-butoxy]-3-methyl-N-(4-methyl-1,1-dioxo-thian-4-yl)imidazo[4,5-b]pyridine-2-carboxamide] | 50 | 
Cn1c(C(=O)NC2(C)CCS(=O)(=O)CC2)nc2ccc(OCC(CC(F)(F)F)OCC(F)F)nc21 (single isomer, unassigned) [Example 63b, 5-[2-(2,2-difluoroethoxy)-4,4,4-trifluoro-butoxy]-3-methyl-N-(4-methyl-1,1-dioxo-thian-4-yl)imidazo[4,5-b]pyridine-2-carboxamide] | 0.8 | 
Cn1c(C(=O)NC2(C)CCS(=O)(=O)CC2)nc2ccc(OCC(OCC(F)F)C(F)(F)F)nc21 (single isomer, unassigned) [Example 64a, 5-[2-(2,2-difluoroethoxy)-3,3,3-trifluoro-propoxy]-3-methyl-N-(4-methyl-1,1-dioxo-thian-4-yl)imidazo[4,5-b]pyridine-2-carboxamide] | 1650 | 
Cn1c(C(=O)NC2(C)CCS(=O)(=O)CC2)nc2ccc(OCC(OCC(F)F)C(F)(F)F)nc21 (single isomer, unassigned) [Example 64b, 5-[2-(2,2-difluoroethoxy)-3,3,3-trifluoro-propoxy]-3-methyl-N-(4-methyl-1,1-dioxo-thian-4-yl)imidazo[4,5-b]pyridine-2-carboxamide] | 3.3 | 
Cn1c(C(=O)NC2(C)CCS(=O)(=O)CC2)nc2ccc(OCC(OCC(F)F)C(F)F)nc21 (single isomer, unassigned) [Example 65a, 5-[2-(2,2-difluoroethoxy)-3,3-difluoro-propoxy]-3-methyl-N-(4-methyl-1,1-dioxo-thian-4-yl)imidazo[4,5-b]pyridine-2-carboxamide] | 215 | 
Cn1c(C(=O)NC2(C)CCS(=O)(=O)CC2)nc2ccc(OCC(OCC(F)F)C(F)F)nc21 (single isomer, unassigned) [Example 65b, 5-[2-(2,2-difluoroethoxy)-3,3-difluoro-propoxy]-3-methyl-N-(4-methyl-1,1-dioxo-thian-4-yl)imidazo[4,5-b]pyridine-2-carboxamide] | 2.8 | 
O=C(N[C@H]1CCCC(F)(F)[C@@H]1O)c1nc2ccc(Oc3ncc(Cl)cc3OCC(F)(F)F)cc2o1 [Example 1, 6-[[5-chloro-3-(2,2,2-trifluoroethoxy)-2-pyridyl]oxy]-N-[(1S,2R)-3,3-difluoro-2-hydroxy-cyclohexyl]-1,3-benzoxazole-2-carboxamide] | 570 | 
CC1(NC(=O)c2nc3ccc(Oc4ncccc4OCC(F)(F)F)cc3o2)CCS(=O)(=O)CC1 [Example 2, N-(4-methyl-1,1-dioxo-thian-4-yl)-6-[[3-(2,2,2-trifluoroethoxy)-2-pyridyl]oxy]-1,3-benzoxazole-2-carboxamide] |  | 47
CC1(NC(=O)c2nc3ccc(Oc4ncc(Cl)cc4OCC(F)(F)F)cc3o2)CCS(=O)(=O)CC1 [Example 3, 6-[[5-chloro-3-(2,2,2-trifluoroethoxy)-2-pyridyl]oxy]-N-(4-methyl-1,1-dioxo-thian-4-yl)-1,3-benzoxazole-2-carboxamide] |  | 63
CC1(NC(=O)c2nc3ccc(Oc4ncc(Cl)cc4OCC(F)(F)F)cc3o2)CC(F)(F)C1 [Example 4] |  | 236
O=C(N[C@H]1CCOC1)c1nc2ccc(Oc3ncc(Cl)cc3OCC(F)(F)F)cc2o1 [Example 5, 6-[[5-chloro-3-(2,2,2-trifluoroethoxy)-2-pyridyl]oxy]-N-[(3S)-tetrahydrofuran-3-yl]-1,3-benzoxazole-2-carboxamide] |  | 1810
CO[C@]1(C(F)(F)F)C[C@H](NC(=O)c2nc3ccc(Oc4ncc(Cl)cc4OCC(F)(F)F)cc3o2)C1 [Example 6, 6-[[5-chloro-3-(2,2,2-trifluoroethoxy)-2-pyridyl]oxy]-N-[3-methoxy-3-(trifluoromethyl)cyclobutyl]-1,3-benzoxazole-2-carboxamide] |  | 900
CO[C@]1(C(F)(F)F)C[C@@H](NC(=O)c2nc3ccc(Oc4ncc(Cl)cc4OCC(F)(F)F)cc3o2)C1 [Example 7, 6-[[5-chloro-3-(2,2,2-trifluoroethoxy)-2-pyridyl]oxy]-N-[3-methoxy-3-(trifluoromethyl)cyclobutyl]-1,3-benzoxazole-2-carboxamide] |  | 1410
CC1(NC(=O)c2nc3ccc(Oc4ncc(Cl)cc4OCC(F)(F)F)cc3o2)CCC(F)(F)CC1 [Example 9, 6-[[5-chloro-3-(2,2,2-trifluoroethoxy)-2-pyridyl]oxy]-N-(4,4-difluoro-1-methyl-cyclohexyl)-1,3-benzoxazole-2-carboxamide] |  | 29
CC1(NC(=O)c2nc3cc(Oc4ncccc4OCC(F)(F)F)ccc3o2)CCS(=O)(=O)CC1 [Example 10, N-(4-methyl-1,1-dioxidotetrahydro-2H-thiopyran-4-yl)-5-((3-(2,2,2-trifluoroethoxy)pyridin-2-yl)oxy)benzo[d]oxazole-2-carboxamide] | 941 | 
Cn1c(C(=O)NC2(C)CCS(=O)(=O)CC2)nc2ccc(Oc3ncccc3OCC(F)(F)F)cc21 [Example 11, 1-Methyl-N-(4-methyl-1,1-dioxidotetrahydro-2H-thiopyran-4-yl)-6-((3-(2,2,2-trifluoroethoxy)pyridin-2-yl)oxy)-1H-benzo[d]imidazole-2-carboxamide] | 1.3 | 
Cn1c(C(=O)NC2(C)CCS(=O)(=O)CC2)nc2cc(Oc3ncccc3OCC(F)(F)F)ccc21 [Example 12, 1-Methyl-N-(4-methyl-1,1-dioxidotetrahydro-2H-thiopyran-4-yl)-5-((3-(2,2,2-trifluoroethoxy)pyridin-2-yl)oxy)-1H-benzo[d]imidazole-2-carboxamide] | 694 | 
Cn1c(C(=O)NC2(C)CCS(=O)(=O)CC2)nc2ccc(Oc3ncc(Cl)cc3OCC(F)(F)F)c(F)c21 [Example 21, 6-((5-Chloro-3-(2,2,2-trifluoroethoxy)pyridin-2-yl)oxy)-7-fluoro-1-methyl-N-(4-methyl-1,1-dioxidotetrahydro-2H-thiopyran-4-yl)-1H-benzo[d]imidazole-2-carboxamide] | 2.3 | 
Cn1c(C(=O)NC2(C)CCS(=O)(=O)CC2)nc2c(F)c(Oc3ncc(Cl)cc3OCC(F)(F)F)ccc21 [Example 22, 5-((5-chloro-3-(2,2,2-trifluoroethoxy)pyridin-2-yl)oxy)-4-fluoro-1-methyl-N-(4-methyl-1,1-dioxidotetrahydro-2H-thiopyran-4-yl)-1H-benzo[d]imidazole-2-carboxamide] | 604 | 
Cn1c(C(=O)NC2(C)CCS(=O)(=O)CC2)nc2ccc(Oc3ncc(Cl)cc3OCC(F)(F)F)c(Cl)c21 [Example 23, 7-Chloro-6-((5-chloro-3-(2,2,2-trifluoroethoxy)pyridin-2-yl)oxy)-1-methyl-N-(4-methyl-1,1-dioxidotetrahydro-2H-thiopyran-4-yl)-1H-benzo[d]imidazole-2-carboxamide] | 2.2 | 
Cn1c(C(=O)NC2(C)CCS(=O)(=O)CC2)nc2c(Cl)c(Oc3ncc(Cl)cc3OCC(F)(F)F)ccc21 [Example 24, 4-Chloro-5-((5-chloro-3-(2,2,2-trifluoroethoxy)pyridin-2-yl)oxy)-1-methyl-N-(4-methyl-1,1-dioxidotetrahydro-2H-thiopyran-4-yl)-1H-benzo[d]imidazole-2-carboxamide] | 89 | 
Cc1c(Oc2ncc(Cl)cc2OCC(F)(F)F)ccc2nc(C(=O)NC3(C)CCS(=O)(=O)CC3)n(C)c12 [Example 25, 6-((5-chloro-3-(2,2,2-trifluoroethoxy)pyridin-2-yl)oxy)-1,7-dimethyl-N-(4-methyl-1,1-dioxidotetrahydro-2H-thiopyran-4-yl)-1H-benzo[d]imidazole-2-carboxamide] | 0.6 | 
Cc1c(Oc2ncc(Cl)cc2OCC(F)(F)F)ccc2c1nc(C(=O)NC1(C)CCS(=O)(=O)CC1)n2C [Example 26, 5-((5-chloro-3-(2,2,2-trifluoroethoxy)pyridin-2-yl)oxy)-1,4-dimethyl-N-(4-methyl-1,1-dioxidotetrahydro-2H-thiopyran-4-yl)-1H-benzo[d]imidazole-2-carboxamide] | 44 | 
Cn1c(C(=O)NC2(C)CCS(=O)(=O)CC2)nc2c(F)cc(Oc3ncc(Cl)cc3OCC(F)F)cc21 [Example 27, 6-((5-chloro-3-(2,2-difluoroethoxy)pyridin-2-yl)oxy)-4-fluoro-1-methyl-N-(4-methyl-1,1-dioxidotetrahydro-2H-thiopyran-4-yl)-1H-benzo[d]imidazole-2-carboxamide] | 2.7 | 
Cn1c(C(=O)NC2(C)CCS(=O)(=O)CC2)nc2ccc(Oc3ncc(Cl)cc3OCC(F)F)nc21 [Example 28, 5-((5-Chloro-3-(2,2-difluoroethoxy)pyridin-2-yl)oxy)-3-methyl-N-(4-methyl-1,1-dioxidotetrahydro-2H-thiopyran-4-yl)-3H-imidazo[4,5-b]pyridine-2-carboxamide] | 1.3 | 
Cn1c(C(=O)NC2(C)CCS(=O)(=O)CC2)nc2ccc(Oc3ncc(F)cc3OCC(F)(F)F)nc21 [Example 29, 5-((5-Fluoro-3-(2,2,2-trifluoroethoxy)pyridin-2-yl)oxy)-3-methyl-N-(4-methyl-1,1-dioxidotetrahydro-2H-thiopyran-4-yl)-3H-imidazo[4,5-b]pyridine-2-carboxamide] | 12 | 
